The subject of one assay is VCaP cells. Put plainly: Prostate Cancer Cell Viability Assay-VCaP. Format: cell-based. The conditions noted are these: Homo sapiens, 120 h, 10% Charcoal Stripped Serum, 5 days, CellTiter-Glo, * n = 1. Here is the method: VCaP cells were counted and seeded into black 384-well plates with clear bottoms at a concentration of 125,000 cells per mL in phenol red-free DMEM containing 10% Charcoal Stripped Serum. 16 μL of the suspension was added per well and incubated for 48 h to allow the cells to adhere. After 48 hours, a 12 point serial semilog dilution of each compound was added to the cells in 16 μL at a final concentration of 100 µM to 0.0003 μM. The compounds of Formula (I) were also run in antagonist mode using 30 pM R1881 in which 8 μL of the compound was added to the cells followed by 8 μL of R1881. After 5 days of incubation at 37° C., 16 μL Of CellTiter-Glo (Promega) was added to the cells and the relative luminescence units (RLUs) of each well determined using the Envision. The percent stimulation and % inhibition were determined for each sample and plotted using GraphPad Prism.
(In ATP-based viability assays light output follows the ATP content of the culture.)

The target of assay [1] is T1, F876L mutant Androgen Receptor (AR-F876L) (Homo sapiens, UniProt P10275, F877L).
T1 construct: expressed in transfected cells; host or cells: LNCaP
T1 sequence (P10275 1-920 F877L): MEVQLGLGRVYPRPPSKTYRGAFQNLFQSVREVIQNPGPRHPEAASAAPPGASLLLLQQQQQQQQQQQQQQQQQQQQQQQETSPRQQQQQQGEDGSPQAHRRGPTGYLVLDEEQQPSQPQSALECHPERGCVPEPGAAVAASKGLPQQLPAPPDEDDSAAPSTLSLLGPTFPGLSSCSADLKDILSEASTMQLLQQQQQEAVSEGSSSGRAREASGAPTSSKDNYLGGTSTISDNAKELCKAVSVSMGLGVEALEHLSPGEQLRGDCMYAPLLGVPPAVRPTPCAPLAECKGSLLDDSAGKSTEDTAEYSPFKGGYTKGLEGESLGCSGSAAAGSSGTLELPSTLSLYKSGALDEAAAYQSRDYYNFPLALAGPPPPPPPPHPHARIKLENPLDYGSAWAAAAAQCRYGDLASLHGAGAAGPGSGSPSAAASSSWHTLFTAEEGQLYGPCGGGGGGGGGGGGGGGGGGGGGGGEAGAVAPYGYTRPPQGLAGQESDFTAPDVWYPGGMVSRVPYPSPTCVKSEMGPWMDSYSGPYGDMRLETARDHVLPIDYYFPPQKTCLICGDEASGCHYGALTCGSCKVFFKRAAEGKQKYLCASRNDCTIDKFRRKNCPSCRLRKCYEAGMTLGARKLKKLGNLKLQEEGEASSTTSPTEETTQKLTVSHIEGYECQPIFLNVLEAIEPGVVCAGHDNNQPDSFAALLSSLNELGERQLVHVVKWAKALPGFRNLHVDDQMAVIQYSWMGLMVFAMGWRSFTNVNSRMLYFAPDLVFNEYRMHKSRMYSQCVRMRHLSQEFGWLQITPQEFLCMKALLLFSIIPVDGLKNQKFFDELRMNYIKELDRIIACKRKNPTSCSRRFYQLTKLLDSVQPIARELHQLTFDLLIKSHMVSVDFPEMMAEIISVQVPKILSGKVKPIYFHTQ
The assay is described as follows: AR reporter assay, LNCaP-AR-F876L AG (agonist mode). To be noted: for Emax: read-out: LNCaP-AR-F876L AG MAX % Stim. Format: cell-based. An excerpt: LNCaP AR (cs) and LNCaP F876L luciferase cell lines were generated by transduction of each cell line (description of cell line generation Joseph J D, Lu N, Qian J, Sensintaffar J, Shao G, Brigham D, Moon M, Maneval E C, Chen I, Darimont B, Hager J H. A clinically relevant androgen receptor mutation confers resistance to second-generation antiandrogens enzalutamide and ARN-509. Cancer Discov 2013; 3:1020-1029) with an Androgen Response Element Firefly Luciferase lentiviral construct at an MOI (multiplicity of infection) of 50 following the manufacturer's instructions (Qiagen). A stable pooled-population cell line was generated using puromycin (Life Technologies) selection at 1:10,000 v/v. The protocol below was used for both cell lines and for testing of the compounds of Formula (I) of the present invention.
LNCaP cells were grown to about 80% confluence, media removed and cells rinsed in Hank's balanced salt solution prior to separation from the plate with 0.05% Trypsin EDTA. Cells were lifted and trypsin negated in complete CSS (charcoal stripped serum) culture media. CSS was maintained on cells for 24 h prior to assay, at which time 5,000 cells/[…] were seeded in Greiner 384 well White/White Tissue Culture Treated Plates and incubated for a further 1-2 hours at 37° C., 5% CO2, prior to addition of 10 μL of 4× Test Compounds (compounds described herein) or Assay Controls (all diluted in complete media containing 10% css). A further 10 μL of 4× R-1881 Agonist Challenge (antagonist assay) or Buffer (agonist assay) was then added (all diluted in complete media containing 10% css). Agonist challenge was at 400 pM for WT assay and 600 pM for F876L assay. Plates containing cells and compounds herein were incubated for a further 20-24 hours at 37° C., 5% CO2 before addition of 40 μL/well of Steady-Glo Luciferase Assay System Reagent (Promega#E2520). After 1 h, plates were read for luminescence on a BMG Pherastar.
((Sample RLU−Ave Low Control RLU[DMSO/Buffer])/(Ave High Control RLU [1 μM R-1881]—Ave Low Control RLU[DMSO/Buffer]))*100.
EC/IC50 calculations were achieved utilizing calculated RLU data and data fitting macros. Data were fit using least-squares methods to the following formula: […]
As used herein: • pIC50 is defined as −Log10(IC50 expressed in [Molar]). • pEC50 is defined as −Log10(EC50 expressed in [Molar]). • MAX % Inh is defined as the maximum % inhibition of R1881 control response observed for a compound over the tested concentration range. • MAX % Stim is defined as the maximum % stimulation (agonist response) observed for a compound over the tested concentration range. • LNCaP-AR-wt ANT refers to the reporter assay using LNCaP cells stably transfected with the Androgen Response Element Firefly Luciferase lentiviral construct and wild-type Androgen Receptor (AR-wt) in Antagonist mode. • LNCaP-AR-wt AG refers to the reporter assay using LNCaP cells stably transfected with the Androgen Response Element Firefly Luciferase lentiviral construct and wild-type Androgen Receptor (AR-wt) in Agonist mode. • LNCaP-AR-F876L ANT refers to the reporter assay using LNCaP cells stably transfected with the Androgen Response Element Firefly Luciferase lentiviral construct and F876L mutant Androgen Receptor (AR-F876L) in Antagonist mode. • LNCaP-AR-F876L AG refers to the reporter assay using LNCaP cells stably transfected with the Androgen Response Element Firefly Luciferase lentiviral construct and F876L mutant Androgen Receptor (AR-F876L) in Agonist mode.
In general terms: Reporter assays use an easily measured gene product as a stand-in for the process of interest.

Where a name gives a salt, the structure may show the parent alone. Read-outs that look alike come from different tables or passages of the source. Some results are limits rather than exact numbers.

For `COc1cc(N2C(=O)C3(CCC3)N(c3ccc(OC4CCN(C)CC4)nc3)C2=S)ccc1C#N` [Compound 20, 2-Methoxy-4-(5-(6-((1-methylpiperidin-4-yl)oxy)pyridin-3-yl)-8-oxo-6-thioxo-5,7-diazaspiro[3.4]octan-7-yl)benzonitrile], the IC50 – broadly, the concentration that inhibits the measured activity by half – with VCaP cells amounted to 1.4 µM. Also, in assay [1], the EC50 was greater than 15.1 µM and the Emax stood at 0.3%.

For the molecule `COc1cc(N2C(=O)C3(CCC3)N(c3ccc(OC4CCN(C)CC4)cc3)C2=S)ccc1C#N` [Compound 19, 2-Methoxy-4-(5-(4-((1-methylpiperidin-4-yl)oxy)phenyl)-8-oxo-6-thioxo-5,7-diazaspiro[3.4]octan-7-yl)benzonitrile], in the assay with VCaP cells, the half-inhibitory concentration (IC50) stood at 9.87 µM. In assay [1], the EC50 is greater than 15.1 µM and the Emax was found to be 0.3%.

In the assay on VCaP cells, `Cc1cc(N2C(=O)C3(CCC3)N(c3ccc(OC4CCN(C)CC4)nc3)C2=S)ccc1C#N` [Compound 18, 2-Methyl-4-(5-(6-((1-methylpiperidin-4-yl)oxy)pyridin-3-yl)-8-oxo-6-thioxo-5,7-diazaspiro[3.4]octan-7-yl)benzonitrile] showed an IC50 of 12.1 µM. Moreover, in assay [1] (agonist mode (buffer, no R-1881), -Log10(EC50 in Molar), read-out: LNCaP-AR-F876L AG pEC50 (converted)), the EC50 was greater than 15.1 µM. In assay [1], the Emax was 2.6%.

On to `CN1CCC(Oc2ncc(N3C(=S)N(c4ccc(C#N)c(C(F)(F)F)c4)C(=O)C3(C)C)cn2)CC1` [Compound 6, 4-(4,4-Dimethyl-3-(2-((1-methylpiperidin-4-yl)oxy)pyrimidin-5-yl)-5-oxo-2-thioxoimidazolidin-1-yl)-2-(trifluoromethyl)benzonitrile], for which the IC50 in the assay on VCaP cells is 18.4 µM. In assay [1], the EC50 is greater than 15.1 µM and the Emax is -0.1%.

The molecule `CC1(C)C(=O)N(c2ccc(C#N)c(C(F)(F)F)c2)C(=S)N1c1ccc(OC2CCNCC2)nc1` [Compound 3, 4-(4,4-Dimethyl-5-oxo-3-(6-(piperidin-4-yloxy)pyridin-3-yl)-2-thioxoimidazolidin-1-yl)-2-(trifluoromethyl)benzonitrile hydrochloride] came in with a 50% inhibitory concentration (IC50) with VCaP cells of 4.86 µM. In addition, in assay [1], the EC50 was greater than 15.1 µM and the Emax was 0.3%.

With `CC1(C)C(=O)N(c2ccc(C#N)c(C(F)(F)F)c2)C(=S)N1c1ccc(OC2CCNCC2)cc1` [Compound 1, 4-(4,4-Dimethyl-5-oxo-3-(4-(piperidin-4-yloxy)phenyl)-2-thioxoimidazolidin-1-yl)-2-(trifluoromethyl)benzonitrile], half-maximal inhibition with VCaP cells (IC50) was put at 2.31 µM. Besides, in assay [1], the EC50 is greater than 15.1 µM and the Emax was -0.1%.

In the assay on VCaP cells, `N#Cc1ccc(N2C(=O)C3(CCC3)N(c3ccc(OC4CCNCC4)nc3)C2=S)cc1C(F)(F)F` [Compound 13, 4-(8-Oxo-5-(6-(piperidin-4-yloxy)pyridin-3-yl)-6-thioxo-5,7-diazaspiro[3.4]octan-7-yl)-2-(trifluoromethyl)benzonitrile hydrochloride] came in with an IC50 of 0.54 µM. In addition, in assay [1], the EC50 is greater than 15.1 µM and the Emax worked out at 0%.

In the assay with VCaP cells, `N#Cc1ccc(N2C(=O)C3(CCC3)N(c3ccc(OC4CCNCC4)cc3)C2=S)cc1C(F)(F)F` [Compound 11, 4-(8-Oxo-5-(4-(piperidin-4-yloxy)phenyl)-6-thioxo-5,7-diazaspiro[3.4]octan-7-yl)-2-(trifluoromethyl)benzonitrile] came in with an IC50 of 1.06 µM. For the same molecule, in assay [1], the EC50 was greater than 15.1 µM and the Emax came out at 0.1%.

`CC1(C)C(=O)N(c2ccc(C#N)c(C(F)(F)F)c2)C(=S)N1c1cnc(OC2CCNCC2)nc1` [Compound 5, 4-(4,4-Dimethyl-5-oxo-3-(2-(piperidin-4-yloxy)pyrimidin-5-yl)-2-thioxoimidazolidin-1-yl)-2-(trifluoromethyl)benzonitrile] registered a half-maximal inhibitory concentration (IC50) with VCaP cells of 13.2 µM. In assay [1], the EC50 was greater than 15.1 µM and the Emax is 0%.

For the molecule `CN1CCC(Oc2ccc(N3C(=S)N(c4ccc(C#N)c(C(F)(F)F)c4)C(=O)C34CCC4)cn2)CC1` [Compound 14, 4-(5-(6-((1-Methylpiperidin-4-yl)oxy)pyridin-3-yl)-8-oxo-6-thioxo-5,7-diazaspiro[3.4]octan-7-yl)-2-(trifluoromethyl)benzonitrile], in the assay with VCaP cells, the IC50 came out at 13.1 µM. Also, in assay [1], the EC50 was greater than 15.1 µM and the Emax amounted to 0.1%.

In turn, `CC1(C)C(=O)N(c2ccc(C#N)c(Cl)c2)C(=S)N1c1ccc(OC2CCNCC2)cc1` [Compound 7, 2-Chloro-4-(4,4-dimethyl-5-oxo-3-(4-(piperidin-4-yloxy)phenyl)-2-thioxoimidazolidin-1-yl)benzonitrile hydrochloride] had an IC50 with VCaP cells of 1.44 µM. In addition, in assay [1], the EC50 was greater than 15.1 µM and the Emax was -0.1%.

Values taken from patent US20190337924A1, “SUBSTITUTED HYDANTOIN AND THIOHYDANTOIN DERIVATIVES AS ANDROGEN RECEPTOR ANTAGONISTS” (Janssen Pharmaceutica NV, priority 2016, published 2019).
